Results: ChEMBL document CHEMBL1130320, “Hypoxia-selective antitumor agents. 15. Modification of rate of nitroreduction and extent of lysosomal uptake by polysubstitution of 4-(alkylamino)-5-nitroquinoline bioreductive drugs” (J Med Chem, 1997)

Assays:
CHO-AA8 = experiment: cells; details: Cricetulus griseus, CHO-AA8, 18 h
Description: Growth inhibition of aerobic AA8 cells, after 18 hours exposure

physchem [1] = details: aqueous solution
Description: Affinity constant determined in aqueous solution

physchem [2] = details: aqueous solution; remark: listed apart in the source
Description: Pka was determined in aqueous solution

COc1cc(OC)c2nccc(NCCCN(C)C)c2c1[N+](=O)[O-]
IC50 (CHO-AA8): 186 µM
pKa (physchem [1]): 6.25

CCc1ccc2nccc(NCCCN(C)C)c2c1[N+](=O)[O-]
IC50 (CHO-AA8): 108 µM
pKa (physchem [1]): 6.2

Cc1nc2cccc([N+](=O)[O-])c2c(NCCCN(C)C)c1C
IC50 (CHO-AA8): 47 µM
pKa (physchem [1]): 6.64

Cc1ccc([N+](=O)[O-])c2c(NCC(O)CO)ccnc12 (configuration not stated)
IC50 (CHO-AA8): 110 µM
pKa (physchem [1]): 7.2

Cc1cnc2ccc(C)c([N+](=O)[O-])c2c1NCCCN(C)C
IC50 (CHO-AA8): 201 µM
pKa (physchem [2]): 6.07

Cc1ccc([N+](=O)[O-])c2c(NCCCN(C)C)cc(-c3ccccc3)nc12
IC50 (CHO-AA8): 12 µM
pKa (physchem [1]): 5.43

CCCCNc1ccnc2cccc([N+](=O)[O-])c12
IC50 (CHO-AA8): 9.6 µM
pKa (physchem [1]): 7.18

COc1ccc([N+](=O)[O-])c2c(NCC(O)CO)ccnc12 (configuration not stated)
IC50 (CHO-AA8): 50 µM
pKa (physchem [1]): 7.1

COc1ccc([N+](=O)[O-])c2c(NCCCN(C)C)c(C)c(C)nc12
IC50 (CHO-AA8): 166 µM
pKa (physchem [1]): 6.64

Cc1nc2c(C)ccc([N+](=O)[O-])c2c(NCCCN(C)C)c1C
IC50 (CHO-AA8): 113 µM
pKa (physchem [1]): 6.67

Cc1cc(C)c2nccc(NCCCN(C)C)c2c1[N+](=O)[O-]
IC50 (CHO-AA8): 74 µM
pKa (physchem [1]): 6.37

O=[N+]([O-])c1cccc2nccc(NCCN3CCOCC3)c12
IC50 (CHO-AA8): 18 µM
pKa (physchem [1]): 6.78

Cc1cnc2c(C)ccc([N+](=O)[O-])c2c1NCCCN(C)C
IC50 (CHO-AA8): 277 µM
pKa (physchem [1]): 6.1

O=[N+]([O-])c1cccc2nccc(NCCCO)c12
IC50 (CHO-AA8): 26 µM
pKa (physchem [1]): 7.06

O=[N+]([O-])c1cccc2nccc(NCC(O)CO)c12 (configuration not stated)
IC50 (CHO-AA8): 33 µM
pKa (physchem [1]): 6.81

CN(C)CCNC(=O)c1ccc(NNc2ccnc3cccc([N+](=O)[O-])c23)cc1
IC50 (CHO-AA8): 13 µM
pKa (physchem [2]): 5.08
